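Protocol summary: plate cells (96-well), add compound at 5 concentrations, incubate 48 h, interpolate endpoints linearly. Abbreviation: GI50, concentration required for 50% inhibition of growth.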 Activity calls are given as the source filed them. Cut-off read from the data, not from the text of the source: active = GI50 up to about 1.1 µM and inactive = higher.
Assays:
Assay in all cases: NCI anticancer screen, dose series, 48 h
RPMI-8226 = system: RPMI-8226
HT-29 = system: HT-29
UACC-257 = system: UACC-257
SNB-75 = system: SNB-75
OVCAR-3 = system: OVCAR-3
NCI-H226 = system: NCI-H226
EKVX = system: EKVX
KM12 = system: KM12
ACHN = system: ACHN
HOP-62 = system: HOP-62
COLO 205 = system: COLO 205
HL-60 = system: HL-60
SN12C = system: SN12C
A498 = system: A498
U-251 = system: U-251
SK-OV-3 = system: SK-OV-3
HOP-92 = system: HOP-92
IGROV-1 = system: IGROV-1

Measured: GI50

CC1=NN(C(=O)Cc2ccccc2)C(=O)/C1=C\C=C\c1ccccc1
inactive: RPMI-8226 > 100 µM | HT-29 > 100 µM | UACC-257 > 100 µM | SNB-75 > 100 µM | OVCAR-3 > 100 µM | NCI-H226 > 100 µM | EKVX > 100 µM | KM12 > 100 µM | ACHN > 100 µM | HOP-62 > 100 µM | COLO 205 > 100 µM | HL-60 > 100 µM | SN12C > 100 µM

O=C(O)CP(=S)(S)c1ccccc1 (stereo not given)
inactive: HT-29 > 100 µM | UACC-257 > 100 µM | A498 > 100 µM | NCI-H226 > 100 µM | EKVX > 100 µM | KM12 > 100 µM | ACHN > 100 µM | U-251 > 100 µM | HOP-62 > 100 µM | COLO 205 > 100 µM | HL-60 > 100 µM | SN12C > 100 µM | SK-OV-3 > 100 µM | HOP-92 > 100 µM

COc1ccc2c([nH]c3c(O)c(-c4c(C)cc5c([nH]c6c(CC=C(C)C)c(OC)ccc65)c4O)c(C)cc32)c1CC=C(C)C [BISMURRAYAFOLINE B]
inactive: RPMI-8226 > 100 µM | HT-29 > 100 µM | UACC-257 > 100 µM | SNB-75 > 100 µM | A498 > 100 µM | OVCAR-3 > 100 µM | KM12 > 100 µM | ACHN > 100 µM | U-251 > 100 µM | HOP-62 > 100 µM | COLO 205 > 100 µM | HL-60 > 100 µM | IGROV-1 > 100 µM | SN12C > 100 µM | SK-OV-3 > 100 µM | HOP-92 > 100 µM

COc1ccc(S(=O)(=O)N/N=C/c2cc(I)cc([N+](=O)[O-])c2O)cc1OC
inactive: RPMI-8226 24 µM | HT-29 46.3 µM | UACC-257 39 µM | A498 54.2 µM | OVCAR-3 24.5 µM | NCI-H226 22.7 µM | EKVX 44.5 µM | KM12 31.3 µM | ACHN 30.4 µM | U-251 32.7 µM | COLO 205 50.9 µM | HL-60 23 µM | IGROV-1 37.7 µM | SN12C 32.8 µM | SK-OV-3 32.4 µM | HOP-92 19.1 µM

COC1=CC23C=CC1[C@@H](c1ccccc1)C2=C(C)C(=O)N3C(=O)NC1CCCCC1 (stereo not given in full)
inactive: HT-29 19.7 µM | UACC-257 26.6 µM | SNB-75 3.78 µM | A498 25.6 µM | OVCAR-3 24.2 µM | NCI-H226 20.4 µM | EKVX 28.7 µM | KM12 31.3 µM | ACHN 30.9 µM | U-251 16.5 µM | HOP-62 21.5 µM | HL-60 21 µM | IGROV-1 61.2 µM | SN12C > 10 µM | SK-OV-3 39 µM | HOP-92 19 µM

COc1cc(C(C)c2cc3c(cc2OCCCCOc2cc4c(cc2C(C)c2cc(OC)c(OC)c(OC)c2)OCO4)OCO3)cc(OC)c1OC (stereo not given)
inactive: RPMI-8226 25.5 µM | HT-29 68.9 µM | UACC-257 84.7 µM | SNB-75 24.8 µM | OVCAR-3 21.7 µM | NCI-H226 31.5 µM | EKVX 40.5 µM | KM12 33 µM | ACHN 69.5 µM | U-251 29.7 µM | HOP-62 37.4 µM | COLO 205 > 100 µM | HL-60 37.8 µM | IGROV-1 49.9 µM | SN12C 29.6 µM | SK-OV-3 34.4 µM

C1=CC=C2NCCOCC/N=C3/C=CC=CC=C3NCCOCC/N=C\2C=C1
inactive: RPMI-8226 45.7 µM | HT-29 15.7 µM | UACC-257 20 µM | SNB-75 > 100 µM | A498 > 100 µM | OVCAR-3 > 100 µM | NCI-H226 > 100 µM | EKVX > 100 µM | KM12 66.2 µM | ACHN > 100 µM | U-251 > 100 µM | HOP-62 > 100 µM | COLO 205 45 µM | HL-60 22.4 µM | IGROV-1 > 100 µM | SN12C 77.6 µM | SK-OV-3 > 100 µM

NC(=O)N/N=C(\C(=O)C(=O)Nc1ccc(Cl)c(C(F)(F)F)c1)c1nc2ccc(C(=O)c3ccccc3)cc2nc1O
inactive: RPMI-8226 > 100 µM | HT-29 95.3 µM | UACC-257 72.4 µM | A498 36.9 µM | NCI-H226 47.3 µM | EKVX 27.2 µM | KM12 77.6 µM | ACHN 82.4 µM | U-251 > 100 µM | COLO 205 > 100 µM | IGROV-1 > 100 µM | SN12C 99.5 µM | SK-OV-3 85.7 µM | HOP-92 7.36 µM

CC1(C)CCc2cc3c(cc2O1)OC(C)(C)C1c2c(ccc4c2CCC(C)(C)O4)OC31 (stereo not given)
inactive: RPMI-8226 > 100 µM | HT-29 > 100 µM | OVCAR-3 78.3 µM | NCI-H226 > 100 µM | EKVX 64.6 µM | KM12 > 100 µM | ACHN > 100 µM | U-251 > 100 µM | HOP-62 > 100 µM | COLO 205 > 100 µM | HL-60 51.1 µM | IGROV-1 > 100 µM | SN12C > 100 µM | SK-OV-3 > 100 µM | HOP-92 > 100 µM

Oc1cc(-c2c[nH]c3ccccc23)nc2cc3c(cc12)OCO3
inactive: RPMI-8226 > 100 µM | HT-29 > 100 µM | UACC-257 > 100 µM | SNB-75 21.6 µM | A498 > 100 µM | OVCAR-3 8.61 µM | NCI-H226 > 100 µM | EKVX > 100 µM | ACHN > 100 µM | U-251 > 100 µM | HOP-62 84.3 µM | COLO 205 > 100 µM | HL-60 > 100 µM | IGROV-1 83.2 µM | SN12C > 100 µM

C/C(=N\N(C)C)C(CN1CCCCC1)C(c1ccccc1)c1c(O)c2ccccc2oc1=O (stereo not given)
inactive: RPMI-8226 > 100 µM | HT-29 > 100 µM | UACC-257 > 100 µM | SNB-75 28.3 µM | A498 > 100 µM | OVCAR-3 > 100 µM | NCI-H226 37.5 µM | EKVX > 100 µM | KM12 > 100 µM | ACHN > 100 µM | U-251 > 100 µM | HOP-62 > 100 µM | COLO 205 > 100 µM | HL-60 > 100 µM | IGROV-1 > 100 µM | SN12C > 100 µM | SK-OV-3 97.5 µM

Cc1ccc(NS(=O)(=O)c2cc(C(C)(C)C)ccc2OCCOCCOCCOc2ccc(C(C)(C)C)cc2S(=O)(=O)Nc2ccc(C)cc2)cc1
inactive: HT-29 > 100 µM | UACC-257 > 100 µM | SNB-75 > 100 µM | A498 > 100 µM | OVCAR-3 > 100 µM | NCI-H226 > 100 µM | EKVX > 100 µM | KM12 > 100 µM | ACHN > 100 µM | U-251 > 100 µM | HOP-62 > 100 µM | COLO 205 > 100 µM | HL-60 > 100 µM | IGROV-1 > 100 µM | SN12C > 100 µM | SK-OV-3 > 100 µM | HOP-92 > 100 µM

COC(=O)C1=C(C)N(NC(N)=O)C2(N)N(NC(N)=O)C(C)=C(C(=O)OC)C12C#N (stereo not given)
inactive: RPMI-8226 > 100 µM | HT-29 > 100 µM | UACC-257 > 100 µM | A498 > 100 µM | OVCAR-3 > 100 µM | NCI-H226 > 100 µM | EKVX > 100 µM | KM12 > 100 µM | ACHN > 100 µM | U-251 > 100 µM | HOP-62 > 100 µM | COLO 205 > 100 µM | HL-60 > 100 µM | IGROV-1 > 100 µM | SN12C > 100 µM | SK-OV-3 > 100 µM | HOP-92 > 100 µM

S=c1nc2c(c[nH]1)C1c3ccccc3C2c2ccccc21
inactive: RPMI-8226 35.9 µM | HT-29 > 10 µM | SNB-75 15.9 µM | OVCAR-3 67.5 µM | NCI-H226 > 100 µM | EKVX 38.5 µM | KM12 44.1 µM | ACHN 61.2 µM | U-251 91.2 µM | HOP-62 > 100 µM | COLO 205 88.7 µM | HL-60 28.3 µM | IGROV-1 69.2 µM | SN12C > 100 µM

O=c1ccn(C2(CO)C=C(CO)C(O)C2O)c(=O)[nH]1 (stereo not given)
inactive: RPMI-8226 > 25.7 µM | UACC-257 > 25.7 µM | SNB-75 > 25.7 µM | A498 > 25.7 µM | OVCAR-3 > 25.7 µM | NCI-H226 > 25.7 µM | EKVX > 25.7 µM | KM12 > 25.7 µM | ACHN > 25.7 µM | U-251 > 25.7 µM | HOP-62 > 25.7 µM | COLO 205 > 25.7 µM | HL-60 > 25.7 µM | IGROV-1 > 25.7 µM | SN12C > 25.7 µM | SK-OV-3 > 25.7 µM

CON1C(=O)C2(CCCCC2)C(=O)C12C=CC(C)CC2 (stereo not given)
inactive: RPMI-8226 72.3 µM | HT-29 62.5 µM | UACC-257 69.8 µM | SNB-75 > 100 µM | A498 > 100 µM | OVCAR-3 > 100 µM | NCI-H226 76.6 µM | EKVX 48.2 µM | KM12 > 100 µM | U-251 > 100 µM | HOP-62 > 100 µM | COLO 205 > 100 µM | HL-60 49.5 µM | IGROV-1 > 100 µM | SN12C > 100 µM | SK-OV-3 > 100 µM

COC(=O)C1=C(c2ccc(OC)c(OC)c2)OC(c2cc(OC)c(OC)c(OC)c2)C1 (stereo not given)
inactive: RPMI-8226 > 100 µM | HT-29 > 100 µM | UACC-257 > 100 µM | SNB-75 7.31 µM | A498 25.6 µM | OVCAR-3 38.1 µM | NCI-H226 50.8 µM | EKVX > 100 µM | KM12 33.1 µM | ACHN 36.4 µM | U-251 13.5 µM | HOP-62 19.7 µM | IGROV-1 24.7 µM | SN12C 34.3 µM | SK-OV-3 15.3 µM | HOP-92 23.2 µM
